Test results reported in ChEMBL document CHEMBL1157883, “Synthesis and biological evaluation of novel 2-arylalkylthio-4-amino-6-benzyl pyrimidines as potent HIV-1 non-nucleoside reverse transcriptase inhibitors” (Bioorg Med Chem Lett, 2010).
Calls of active or inactive are those of the source. The calls are words filed in the database; no cut-off is given here.

Legend:
[1] = target: Human immunodeficiency virus type 1 reverse transcriptase (Human immunodeficiency virus 1) (UniProt Q72547); assay: Inhibition of biotin-dUTP labeled HIV-1 reverse transcriptase at 100 uM after 30 mins colorimetric streptavidin alkaline phosphatase reporter system
[2] = tested on: Human immunodeficiency virus 1; assay: Antiviral activity against HIV1 in cell based assay; format: functional, organism-based
[3] = tested on: Human immunodeficiency virus 1; assay: Antiviral activity against pluri-resistant HIV1 IRLL98 in cell based assay; format: functional, organism-based; conditions: Human immunodeficiency virus 1, IRLL98
[4] = target: Human immunodeficiency virus type 1 reverse transcriptase (Human immunodeficiency virus 1, UniProt Q72547); assay: Inhibition of biotin-dUTP labeled HIV-1 reverse transcriptase after 30 mins colorimetric streptavidin alkaline phosphatase reporter system
[5] = target: Human immunodeficiency virus type 1 reverse transcriptase (Human immunodeficiency virus 1) (UniProt Q72547); assay: Inhibition of HIV1 reverse transcriptase

| inhibition [1] | Structure (SMILES) | EC50 [2] | EC50 [3] | IC50 [4] | ID50 [5] |
| --- | --- | --- | --- | --- | --- |
| inactive | O=c1cc(Cc2ccccc2)nc(SCc2ccc3ccccc3c2)[nH]1 | – | – | – | – |
| – | Cc1cccc(CSc2nc(N)cc(Cc3ccccc3)n2)c1 | < 0.14 nM | 0.22 nM | 18000 nM | 26 nM |
| – | Cc1ccccc1CSc1nc(N)cc(Cc2ccccc2)n1 | < 0.14 nM | 0.22 nM | 29900 nM | 26 nM |
| inactive | Clc1cc(Cc2ccccc2)nc(SCCCc2ccccc2)n1 | – | – | – | – |
| inactive | CC(Sc1nc(Cl)cc(Cc2ccccc2)n1)c1ccccc1 (stereo unspecified) | – | – | – | – |
| – | CC(Sc1nc(N)cc(Cc2ccccc2)n1)c1ccccc1 (stereo unspecified) | < 0.14 nM | 0.22 nM | 63900 nM | 26 nM |
| inactive | O=c1cc(Cc2ccccc2)nc(SCc2ccccc2)[nH]1 | – | – | – | – |
| inactive | Clc1cc(Cc2ccccc2)nc(SCCc2ccccc2)n1 | – | – | – | – |
| inactive | Cc1ccccc1CSc1nc(Cl)cc(Cc2ccccc2)n1 | – | – | – | – |
| inactive | Clc1cc(Cc2ccccc2)nc(SCc2ccc3ccccc3c2)n1 | – | – | – | – |
| – | Nc1cc(Cc2ccccc2)nc(SCc2ccccc2)n1 | < 0.14 nM | 0.22 nM | > 100000 nM | 26 nM |
| inactive | CC(C)(C)c1ccc(CSc2nc(Cl)cc(Cc3ccccc3)n2)cc1 | – | – | – | – |
| – | Cc1cccc(CSc2nc(Cl)cc(Cc3ccccc3)n2)c1 | – | – | 90800 nM | – |
| inactive | CC(C)(C)c1ccc(CSc2nc(Cc3ccccc3)cc(=O)[nH]2)cc1 | – | – | – | – |
| – | COc1cccc(CSc2nc(N)cc(Cc3ccccc3)n2)c1 | < 0.14 nM | 0.22 nM | > 100000 nM | 26 nM |
| inactive | COc1cccc(CSc2nc(Cl)cc(Cc3ccccc3)n2)c1 | – | – | – | – |
| – | Clc1cc(Cc2ccccc2)nc(SCc2ccccc2)n1 | – | – | > 100000 nM | – |
| – | Nc1cc(Cc2ccccc2)nc(SCc2ccc3ccccc3c2)n1 | < 0.14 nM | 0.22 nM | 17100 nM | 26 nM |

| Structure (SMILES) | inhibition [1] | EC50 [2] | EC50 [3] | IC50 [4] | ID50 [5] |
| --- | --- | --- | --- | --- | --- |
| CC(C)(C)c1ccc(CSc2nc(N)cc(Cc3ccccc3)n2)cc1 | inactive | < 0.14 nM | 0.22 nM | – | 26 nM |
| Nc1cc(Cc2ccccc2)nc(SCCCc2ccccc2)n1 | inactive | < 0.14 nM | 0.22 nM | – | – |
| Nc1cc(Cc2ccccc2)nc(SCCc2ccccc2)n1 | inactive | < 0.14 nM | 0.22 nM | – | – |
